Laboratory results published in publication PMC8498107 (Frontiers in Molecular Neuroscience, 2021).

How the values were obtained:
hyperekplexia phenotype = tested on: hyperekplexia phenotype; parameters: method as in Bode and Lynch, 2014; conditions: clinical, gain-of-function and loss-of-function mutations; ref Bode and Lynch, 2014; cited from earlier work
GlyR α1β (wild-type) = target: T1, GlyR α1β (wild-type) (Homo sapiens, UniProt P23415+P48167); type: cell-based
T1 construct: Full-length cDNAs encoding the human wild-type (WT) or mutated GlyR β variants; expressed in transfected cells; host or cells: HEK-293
Procedure: (§1) Full-length cDNAs encoding the human wild-type (WT) or mutated GlyR β variants (β^x) (with x = Y252S, S321F, and A455P) were cloned into the eukaryotic expression vector pRK5 (gift from †P. Seeburg, Heidelberg) and mutagenesis was performed as previously described ([James et al., 2013]). GlyR β variants were further subcloned into pRK5 harboring a myc-epitope at the N-terminus 5′ of residues ^1KEKS^4 representing the first amino acids of the mature GlyR β sequence. eGFP-gephyrin constructs were previously described ([Harvey et al., 2004]). All expression constructs were fully sequenced to verify successful mutagenesis.
(§2) HEK-293 cells were transiently transfected using a modified calcium-phosphate precipitation method. Transfection was performed at a confluency of 50–75%, 24 h after seeding of 200,000 cells on glass cover slips in 35 mm culture dishes or 1.5 × 10^6 cells per 10 cm dish. For 35 mm and 10 cm culture dishes GlyR α1, GlyR β or GlyR β variants and eGFP-gephyrin were transfected in a ratio of cDNAs 1:10:5, e.g., 0.2 μg α1, 2 μg β, and 1 μg of eGFP-gephyrin for 35 mm dishes. To label cellular compartments, low copy number vectors were used to exclude effects from overexpression [1 μg; dsRed MEM = fusion of sequence from neuromodulin (GAP-43) and dsRed to label the plasma membrane or dsRed ER = fusion construct of dsRed and calreticulin sequence to label the ER]. The DNA was supplied with 2.5 M CaCl2, 0.1x TE buffer and 2x HBS buffer (50 mM HEPES, 12 mM glucose, 10 mM KCl, 280 mM NaCl, 1.5 mM Na2HPO4) mixed and incubated for 20 min at room temperature. The medium was exchanged after 4–6 h and cells were used for experiments 24–48 h after transfection.
(§3) Electrophysiological characterization was performed on transfected HEK-293 cells using the patch-clamp method for whole cell recordings. Experiments were performed at room temperature. […] Current responses were amplified with an EPC-9 amplifier (HEKA Elektronik GmbH, Lambrecht/Pfalz, Germany) and measured at a holding potential of −60 mV using PatchMaster Next software (HEKA Elektronik GmbH, Lambrecht/Pfalz, Germany).

[1] = target: T2, GlyR α1β (wild-type) + eGFP-gephyrin (Homo sapiens, UniProt P23415+P48167); type: cell-based
T2 construct: Full-length cDNAs encoding the human wild-type (WT) or mutated GlyR β variants; expressed in transfected cells; host or cells: HEK-293
Procedure: as §1, §2, §3

GlyR α1β^A455P = target: T3, GlyR α1β^A455P (Homo sapiens, UniProt P23415+P48167, A477P); type: cell-based
T3 construct: Full-length cDNAs encoding the human wild-type (WT) or mutated GlyR β variants; expressed in transfected cells; host or cells: HEK-293
Procedure: as §1, §2, §3

[2] = target: T4, GlyR α1β^A455P + eGFP-gephyrin (Homo sapiens, UniProt P23415+P48167, A477P); type: cell-based
T4 construct: Full-length cDNAs encoding the human wild-type (WT) or mutated GlyR β variants; expressed in transfected cells; host or cells: HEK-293
Procedure: as §1, §2, §3

GlyR α1β^S321F = target: T5, GlyR α1β^S321F (Homo sapiens, UniProt P23415+P48167, S343F); type: cell-based
T5 construct: Full-length cDNAs encoding the human wild-type (WT) or mutated GlyR β variants; expressed in transfected cells; host or cells: HEK-293
Procedure: as §1, §2, §3

[3] = target: T6, GlyR α1β^S321F + eGFP-gephyrin (Homo sapiens, UniProt P23415+P48167, S343F); type: cell-based
T6 construct: Full-length cDNAs encoding the human wild-type (WT) or mutated GlyR β variants; expressed in transfected cells; host or cells: HEK-293
Procedure: as §1, §2, §3

GlyR α1β^Y252S = target: T7, GlyR α1β^Y252S (Homo sapiens, UniProt P23415+P48167, Y274S); type: cell-based
T7 construct: Full-length cDNAs encoding the human wild-type (WT) or mutated GlyR β variants; expressed in transfected cells; host or cells: HEK-293
Procedure: as §1, §2, §3

[4] = target: T8, GlyR α1β^Y252S + eGFP-gephyrin (Homo sapiens, UniProt P23415+P48167, Y274S); type: cell-based
T8 construct: Full-length cDNAs encoding the human wild-type (WT) or mutated GlyR β variants; expressed in transfected cells; host or cells: HEK-293
Procedure: as §1, §2, §3

GlyR α1 homomers = target: T9, GlyR α1 homomers (Homo sapiens, UniProt P23415); experiment: picrotoxinin block of the glycine-gated response, whole-cell patch-clamp in HEK-293 cells; type: cell-based; conditions: 100 μM glycine + 100 μM picrotoxinin compared to 100 μM glycine alone
T9 construct: expressed in transfected cells; host or cells: HEK-293
T9 sequence (P23415 29-457): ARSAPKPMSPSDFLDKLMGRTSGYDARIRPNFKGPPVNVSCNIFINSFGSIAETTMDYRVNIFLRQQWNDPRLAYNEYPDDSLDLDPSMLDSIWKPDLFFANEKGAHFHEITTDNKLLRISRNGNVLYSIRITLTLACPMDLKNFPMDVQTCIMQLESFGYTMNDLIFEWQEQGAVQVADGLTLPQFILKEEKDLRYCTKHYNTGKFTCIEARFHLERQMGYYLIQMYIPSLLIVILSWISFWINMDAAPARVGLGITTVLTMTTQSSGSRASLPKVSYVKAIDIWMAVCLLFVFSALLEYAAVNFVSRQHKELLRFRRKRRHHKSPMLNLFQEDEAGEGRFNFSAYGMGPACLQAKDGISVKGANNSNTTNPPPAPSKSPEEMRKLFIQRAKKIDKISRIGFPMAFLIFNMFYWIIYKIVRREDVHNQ
Procedure: as §2, with “The medium was exchanged after 4–6 h and cells were used for experiments 24–48 h after transfection.” left out
as §3, with “recordings.” for “recordings. Experiments were performed at room temperature.”

α1β^x channels = experiment: as above; type: cell-based, human; conditions: 100 μM glycine + 100 μM picrotoxinin compared to 100 μM glycine alone
Procedure: as §1
HEK-293 cells were transiently transfected using a modified calcium-phosphate precipitation method. Transfection was performed at a confluency of 50–75%, 24 h after seeding of 200,000 cells on glass cover slips in 35 mm culture dishes or 1.5 × 10^6 cells per 10 cm dish. […]
as §3, with “recordings.” for “recordings. Experiments were performed at room temperature.”

[5] = tested on: heteromeric αβ channels versus homomeric α subunit GlyRs; parameters: method as in Pribilla et al., 1992; conditions: heteromeric αβ channels almost unaffected; ref Pribilla et al., 1992; cited from earlier work
[6] = residual current, 100 μM picrotoxinin + 100 μM glycine versus 100 μM glycine alone
[7] = in the presence of eGFP-gephyrin, remaining current, 100 μM glycine + 100 μM picrotoxinin versus 100 μM glycine alone

T7 sequence (P48167 23-497 Y274S, one chain of several): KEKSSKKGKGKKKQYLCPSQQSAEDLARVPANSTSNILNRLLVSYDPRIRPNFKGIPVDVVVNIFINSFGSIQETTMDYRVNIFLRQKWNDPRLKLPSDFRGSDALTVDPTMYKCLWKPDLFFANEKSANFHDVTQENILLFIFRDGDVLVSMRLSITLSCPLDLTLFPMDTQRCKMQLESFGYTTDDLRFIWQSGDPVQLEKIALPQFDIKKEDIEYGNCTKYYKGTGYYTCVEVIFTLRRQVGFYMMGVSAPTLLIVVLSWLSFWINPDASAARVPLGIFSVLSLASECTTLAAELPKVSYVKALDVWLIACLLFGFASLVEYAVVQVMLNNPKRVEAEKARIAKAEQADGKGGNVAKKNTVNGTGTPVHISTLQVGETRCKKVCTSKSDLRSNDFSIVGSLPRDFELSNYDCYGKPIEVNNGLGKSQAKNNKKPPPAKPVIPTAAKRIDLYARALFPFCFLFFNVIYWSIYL
T4 sequence (P48167 23-497 A477P, one chain of several): as the sequence (P48167 23-497 Y274S, one chain of several) above, with S252Y, A455P counted along it
T8 sequence (P48167 23-497 Y274S, one chain of several): as the sequence (P48167 23-497 Y274S, one chain of several) above
T5 sequence (P48167 23-497 S343F, one chain of several): as the sequence (P48167 23-497 Y274S, one chain of several) above, with S252Y, S321F counted along it
T2 sequence (P48167 23-497, one chain of several): as the sequence (P48167 23-497 Y274S, one chain of several) above, with S252Y counted along it
T1 sequence (P48167 23-497, one chain of several): as the sequence (P48167 23-497 Y274S, one chain of several) above, with S252Y counted along it
T3 sequence (P48167 23-497 A477P, one chain of several): as the sequence (P48167 23-497 Y274S, one chain of several) above, with S252Y, A455P counted along it
T6 sequence (P48167 23-497 S343F, one chain of several): as the sequence (P48167 23-497 Y274S, one chain of several) above, with S252Y, S321F counted along it

O=C1CN=C(c2ccccc2Cl)c2cc([N+](=O)[O-])ccc2N1 [clonazepam]
treatment of the hyperekplexia phenotype (hyperekplexia phenotype): effective treatment in many cases

NCC(=O)O [glycine]
Imax (GlyR α1β (wild-type)): 4.1 ± 0.4 nA
Imax [1]: 2.9 ± 1.0 nA
Imax (GlyR α1β^A455P): 9.5 ± 1.2 nA
Imax [2]: 6.6 ± 1.1 nA
Imax (GlyR α1β^S321F): 5.1 ± 0.7 nA
Imax [3]: 4.1 ± 0.7 nA
Imax (GlyR α1β^Y252S): 4.7 ± 0.6 nA
Imax [4]: 3.7 ± 0.9 nA

C=C(C)[C@@H]1[C@H]2OC(=O)[C@@H]1[C@]1(O)C[C@H]3O[C@]34C(=O)O[C@H]2[C@]14C [picrotoxinin]
I 100 μM picrotoxinin + glycine/I 100 μM glycine (GlyR α1β (wild-type); [6]): 90 ± 11%
Ipicrotoxinin + glycine/ Iglycine [1, 7]: 72 ± 7%
I 100 μM picrotoxinin + glycine/I 100 μM glycine (GlyR α1β^A455P; [6]): 86 ± 10%
Ipicrotoxinin + glycine/ Iglycine [2, 7]: 92 ± 17%
I 100 μM picrotoxinin + glycine/I 100 μM glycine (GlyR α1β^S321F; [6]): 111 ± 15%
Ipicrotoxinin + glycine/ Iglycine [3, 7]: 73 ± 4%
I 100 μM picrotoxinin + glycine/I 100 μM glycine (GlyR α1β^Y252S; [6]): 99 ± 19%
Ipicrotoxinin + glycine/ Iglycine [4, 7]: 84 ± 9%
reduction in current amplitude of the original value (block of the glycine-gated response) (GlyR α1 homomers): 29.22%
picrotoxinin block (α1β^x channels): 0–19%

picrotoxin
fold less effective on heteromeric αβ channels than on homomeric α subunit GlyRs [5]: 50–200 fold
